# US20260231939A1, “ARTHROPOD CONTROL COMPOSITIONS” (Firmenich SA, priority 2022, published 2026)
# Like-named read-outs stand apart in the source and are kept apart here.
# Legend:
# Aedes aegypti = assay: Warm Body assay, mosquito landings on the baited warm body; type: in vivo; settings: for pest or weed control at 16 µg/mL / pest or weed control at 400 µg/mL / pest or weed control at 10000 µg/mL: Aedes aegypti, read-out: Percentage of repellence of mosquitoes landing on the warm body; for repellence efficacy compared with the saturated counterpart: Warm Body assay, paired t-test where given
# Protocol: (§1) The controlling effect according to the present invention was assessed using an adapted Warm Body assay as defined in Kröber T, Kessler S, Frei J, Bourquin M, Guerin P M. 2010. J Am Mosq Control Assoc. 26:381-386. In this in-vitro assay the number of mosquito landing on a warm body, simulating an attractive host treated with the tested stimuli, was measured in order to assess the repellence effect.
# The published protocol has been adapted as the switch from Anopheles gambiae to Ae. aegypti led to a decrease of mosquitoes placed in the tested cage due to the size difference (i.e. 30 mosquitoes instead of 50) and to an increase of lighting since Ae. aegypti is a diurnal mosquitoes (i.e. 150 lux instead of 4 lux).
# (§2) On the sandblasted glass Petri dish covering the warm body (28.3 cm^2), 100 μL of the compounds diluted at different concentrations in ethanol was applied. The number of mosquito landing on the warm body was counted for each stimulus. Number of landings on pure ethanol (solvent) control treatment was used to normalize the data and calculate the percentage of repellence.
# Anopheles gambiae = assay: as above; type: in vivo; settings: for repellence efficacy compared with the saturated counterpart: Warm Body assay, paired t-test, FIG. 4
# Protocol: Anopheles gambiae is also a model organism as it is anthropophilic and transmits malaria.
# as §1, with “effect. […]” for “effect.”
# as §2
# Ae. aegypti = assay: Arm-in-cage test on human volunteers; type: in vivo, Aedes aegypti; settings: for repellence efficacy compared with saturated 6-pentyloxan-2-one: Arm-in-Cage, paired t-test, FIG. 5; for repellence efficacy compared with saturated 6-pentyloxan-2-one / Arm-in-cage repellence: 20% in ethanol
# Protocol: (§3) The Arm in the box method was adapted from the WHO Guidelines for efficacy testing of mosquito repellents for human skin (WHO/CDS/NTD/WHOPES/2009.4) and/or based on EU biocide testing guidelines (Guidance on the Biocidal Products Regulation. Vol. II Efficacy—Assessment and Evaluation (Parts B+C), v. 4.0. December 2021). The readiness of 200 hungry female mosquitoes Ae. aegypti or 50 An. gambiae to probe is assessed by inserting the untreated arm of human volunteers into the cage (40×40×40 cm) for 30 seconds (negative control) in order to determine probing activity. Then, the product is applied onto the skin of the forearm of the human volunteer (1 mL per 600 cm^2) and after 5 minutes (Ae. aegypti) or 30 minutes (An. gambiae), this arm is inserted into the cage and exposed for 3 minutes. The assay take place in temperature (27±2° C.) and humidity (80±10% RH) regulated room on three different human volunteers.
# An. gambiae = assay: Arm-in-cage test on human volunteers; type: in vivo, Anopheles gambiae; settings: for time during which protection is 100%, i.e. no mosquito landing / Arm-in-cage repellence: 20% in ethanol; for time during which mosquito protection / repellence is >90%: 20% solution in ethanol; for repellent effect: dilution of 5%
# Protocol: as §3
# Ixodes ricinus = assay: Warm Plate Assay for ticks; settings: for lower dose at which 100% of repellent efficacy is already reached: in vivo
# [1] = unsaturated δ-lactones at 20%, 30 min
# [2] = unsaturated δ-lactones at 20%, 1 h
# [3] = unsaturated δ-lactones at 20%, 2 h
# [4] = unsaturated δ-lactones at 20%, 3 h
# [5] = unsaturated δ-lactones at 20%, 4 h
# [6] = unsaturated δ-lactones at 20%, 5 h
# [7] = unsaturated δ-lactones at 20%, 6 h
# [8] = unsaturated δ-lactones at 20%, 7 h
# [9] = γ-lactones, 0.016 mg/mL in ethanol
# [10] = γ-lactones, 0.4 mg/mL in ethanol
# [11] = γ-lactones, 10 mg/mL in ethanol
structure (smiles),measurement,setting,value
CC=CCCC1CCCC(=O)O1 (centres unmarked) [6-pent-3-enyloxan-2-one],pest or weed control at 16 µg/mL,"Aedes aegypti; δ-lactones, 0.016 mg/mL",20%
same,pest or weed control at 400 µg/mL,"Aedes aegypti; δ-lactones, 0.4 mg/mL",98%
same,pest or weed control at 10000 µg/mL,"Aedes aegypti; δ-lactones, 10 mg/mL",100%
same,repellence efficacy compared with the saturated counterpart,Aedes aegypti,significantly more efficient
same,repellence efficacy compared with the saturated counterpart,Anopheles gambiae,significantly more efficient
same,repellence efficacy compared with saturated 6-pentyloxan-2-one,Ae. aegypti,more efficient
same,"time during which protection is 100%, i.e. no mosquito landing",An. gambiae,3 h
same,time during which mosquito protection / repellence is >90%,An. gambiae,8 h
same,"Arm-in-cage repellence, mean of three volunteers",An. gambiae; [1],100% ±
same,"Arm-in-cage repellence, mean of three volunteers",An. gambiae; [2],100% ±
same,"Arm-in-cage repellence, mean of three volunteers",An. gambiae; [3],100% ±
same,"Arm-in-cage repellence, mean of three volunteers",An. gambiae; [4],100% ±
same,"Arm-in-cage repellence, mean of three volunteers",An. gambiae; [5],99.0% ±
same,"Arm-in-cage repellence, mean of three volunteers",An. gambiae; [6],98.4% ±
same,"Arm-in-cage repellence, mean of three volunteers",An. gambiae; [7],98.3% ±
same,"Arm-in-cage repellence, mean of three volunteers",An. gambiae; [8],94.9% ±
same,"Arm-in-cage repellence, mean of three volunteers","An. gambiae; unsaturated δ-lactones at 20%, 8 h",94.7% ±
same,Percentage of repellence of ticks on the warm plate,Ixodes ricinus; 0.40 mg/mL,83%
same,Percentage of repellence of ticks on the warm plate,Ixodes ricinus; 2 mg/mL,100%
same,Percentage of repellence of ticks on the warm plate,Ixodes ricinus; 10 mg/mL,100%
same,lower dose at which 100% of repellent efficacy is already reached,Ixodes ricinus,0.2%
CCC=CCCC1CCC(=O)O1 (centres unmarked) [5-hex-3-enyloxolan-2-one],pest or weed control at 16 µg/mL,Aedes aegypti; [9],0%
same,pest or weed control at 400 µg/mL,Aedes aegypti; [10],81%
same,pest or weed control at 10000 µg/mL,Aedes aegypti; [11],95%
same,repellence efficacy compared with the saturated counterpart,Aedes aegypti,significantly higher
same,Percentage of repellence of mosquitoes landing on the warm body,Anopheles gambiae; 0.08 mg/mL,12%
same,Percentage of repellence of mosquitoes landing on the warm body,Anopheles gambiae; 0.178 mg/mL,38%
same,Percentage of repellence of mosquitoes landing on the warm body,Anopheles gambiae; 0.267 mg/mL,95%
same,Percentage of repellence of mosquitoes landing on the warm body,Anopheles gambiae; 0.598 mg/mL,93%
same,Percentage of repellence of mosquitoes landing on the warm body,Anopheles gambiae; 0.89 mg/mL,100%
same,Percentage of repellence of mosquitoes landing on the warm body,Anopheles gambiae; 2 mg/mL,100%
same,Percentage of repellence of mosquitoes landing on the warm body,Anopheles gambiae; 4.47 mg/mL,100%
same,Percentage of repellence of mosquitoes landing on the warm body,Anopheles gambiae; 10 mg/mL,100%
same,Arm-in-cage repellence,Ae. aegypti; 5 min post application,98.5% ±
same,Arm-in-cage repellence,Ae. aegypti; 1 h post application,97.0% ±
same,Arm-in-cage repellence,Ae. aegypti; 2 h post application,93.0% ±
same,Arm-in-cage repellence,Ae. aegypti; 3 h post application,88.3% ±
same,Arm-in-cage repellence,Ae. aegypti; 4 h post application,79.5% ±
same,time during which mosquito protection is >90%,Ae. aegypti; 20% solution in ethanol,2 h
same,"time during which protection is 100%, i.e. no mosquito landing",An. gambiae,4 h
same,Arm-in-cage repellence,An. gambiae; 30 min post application,100% ±
same,Arm-in-cage repellence,An. gambiae; 1 h post application,100% ±
same,Arm-in-cage repellence,An. gambiae; 2 h post application,100% ±
same,Arm-in-cage repellence,An. gambiae; 3 h post application,100% ±
same,Arm-in-cage repellence,An. gambiae; 4 h post application,100% ±
same,Arm-in-cage repellence,An. gambiae; 5 h post application,97.85% ±
same,Arm-in-cage repellence,An. gambiae; 6 h post application,80.07% ±
same,time during which mosquito protection / repellence is >90%,An. gambiae,5 h
same,Percentage of repellence of ticks on the warm plate,Ixodes ricinus; 0.40 mg/mL,17%
same,Percentage of repellence of ticks on the warm plate,Ixodes ricinus; 10 mg/mL,100%
C=CCCCCC1CCC(=O)O1 (centres unmarked) [5-hex-5-enyloxolan-2-one],pest or weed control at 16 µg/mL,Aedes aegypti; [9],14%
same,pest or weed control at 400 µg/mL,Aedes aegypti; [10],89%
same,pest or weed control at 10000 µg/mL,Aedes aegypti; [11],100%
same,Percentage of repellence of mosquitoes landing on the warm body,Anopheles gambiae; 0.08 mg/mL,65%
same,Percentage of repellence of mosquitoes landing on the warm body,Anopheles gambiae; 0.178 mg/mL,72%
same,Percentage of repellence of mosquitoes landing on the warm body,Anopheles gambiae; 0.267 mg/mL,73%
same,Percentage of repellence of mosquitoes landing on the warm body,Anopheles gambiae; 0.598 mg/mL,88%
same,Percentage of repellence of mosquitoes landing on the warm body,Anopheles gambiae; 0.89 mg/mL,98%
same,Percentage of repellence of mosquitoes landing on the warm body,Anopheles gambiae; 2 mg/mL,100%
same,Percentage of repellence of mosquitoes landing on the warm body,Anopheles gambiae; 4.47 mg/mL,100%
same,Percentage of repellence of mosquitoes landing on the warm body,Anopheles gambiae; 10 mg/mL,100%
CCC=CCC1CCCC(=O)O1 (centres unmarked) [6-pent-2-enyloxan-2-one],repellence efficacy compared with the saturated counterpart,Aedes aegypti,significantly more efficient
same,repellence efficacy compared with the saturated counterpart,Anopheles gambiae,significantly more efficient
same,repellence efficacy compared with saturated 6-pentyloxan-2-one,Ae. aegypti,more efficient
same,"time during which protection is 100%, i.e. no mosquito landing",An. gambiae,4 h
same,time during which mosquito protection / repellence is >90%,An. gambiae,6 h
same,repellent effect,An. gambiae; 30 min after application,100%
same,repellent effect,An. gambiae; 1 h after application,99.2%
same,repellent effect,An. gambiae; 2 h after application,67.2%
same,"Arm-in-cage repellence, mean of three volunteers",An. gambiae; [1],100% ±
same,"Arm-in-cage repellence, mean of three volunteers",An. gambiae; [2],100% ±
same,"Arm-in-cage repellence, mean of three volunteers",An. gambiae; [3],100% ±
same,"Arm-in-cage repellence, mean of three volunteers",An. gambiae; [4],100% ±
same,"Arm-in-cage repellence, mean of three volunteers",An. gambiae; [5],100% ±
same,"Arm-in-cage repellence, mean of three volunteers",An. gambiae; [6],99.2% ±
same,"Arm-in-cage repellence, mean of three volunteers",An. gambiae; [7],92.3% ±
same,"Arm-in-cage repellence, mean of three volunteers",An. gambiae; [8],87.8% ±
same,Percentage of repellence of ticks on the warm plate,Ixodes ricinus; 0.08 mg/mL,33%
same,Percentage of repellence of ticks on the warm plate,Ixodes ricinus; 0.18 mg/mL,42%
same,Percentage of repellence of ticks on the warm plate,Ixodes ricinus; 0.40 mg/mL,75%
same,Percentage of repellence of ticks on the warm plate,Ixodes ricinus; 0.89 mg/mL,100%
same,Percentage of repellence of ticks on the warm plate,Ixodes ricinus; 2 mg/mL,100%
same,Percentage of repellence of ticks on the warm plate,Ixodes ricinus; 10 mg/mL,100%
same,lower dose at which 100% of repellent efficacy is already reached,Ixodes ricinus,0.089%
"CC1CCC2C(C1)OC(=O)C2C (centres unmarked) [3,6-dimethyl-3a,4,5,6,7,7a-hexahydro-3H-1-benzofuran-2-one]",pest or weed control at 16 µg/mL,"Aedes aegypti; more complex lactones (types A, B, C), 0.016 mg/mL",0%
same,pest or weed control at 400 µg/mL,"Aedes aegypti; more complex lactones (types A, B, C), 0.4 mg/mL",90%
same,pest or weed control at 10000 µg/mL,"Aedes aegypti; more complex lactones (types A, B, C), 10 mg/mL",98%
same,mosquitoes repelled for at least 1 h,Ae. aegypti; at 20%,> 95%
same,"Arm-in-cage repellence, mean of three volunteers","Ae. aegypti; at 20%, 30 min",100% ±
same,"Arm-in-cage repellence, mean of three volunteers","Ae. aegypti; at 20%, 1 h",99.93% ±
same,"Arm-in-cage repellence, mean of three volunteers","Ae. aegypti; at 20%, 2 h",92.21% ±
same,"Arm-in-cage repellence, mean of three volunteers","Ae. aegypti; at 20%, 3 h",86.52% ±
same,"Arm-in-cage repellence, mean of three volunteers","Ae. aegypti; at 20%, 4 h",66.02% ±
same,mosquitoes repelled for at least 1 h,An. gambiae; at 20%,> 95%
same,"Arm-in-cage repellence, mean of three volunteers","An. gambiae; at 20%, 30 min",100% ±
same,"Arm-in-cage repellence, mean of three volunteers","An. gambiae; at 20%, 1 h",93.7% ±
same,"Arm-in-cage repellence, mean of three volunteers","An. gambiae; at 20%, 2 h",67.05% ±
CCC1CCCC(=O)O1 (centres unmarked) [6-ethyloxan-2-one],mosquitoes that still land on the warm body,Aedes aegypti; 10 mg/mL (1 mg absolute applied),> 50%
same,pest or weed control at 16 µg/mL,"Aedes aegypti; δ-lactones, 0.016 mg/mL",0%
same,pest or weed control at 400 µg/mL,"Aedes aegypti; δ-lactones, 0.4 mg/mL",11%
same,pest or weed control at 10000 µg/mL,"Aedes aegypti; δ-lactones, 10 mg/mL",48%
CCC=CCCC1(C)CCC(=O)O1 (centres unmarked) [5-hex-3-enyl-5-methyloxolan-2-one],pest or weed control at 16 µg/mL,Aedes aegypti; [9],39%
same,pest or weed control at 400 µg/mL,Aedes aegypti; [10],79%
same,pest or weed control at 10000 µg/mL,Aedes aegypti; [11],96%
"C=C/C=C/C1C(=O)OC1CCCCC (centres unmarked) [(E)-3-buta-1,3-dienyl-4-pentyloxetan-2-one]",pest or weed control at 16 µg/mL,"Aedes aegypti; β- and ε-lactones, 0.016 mg/mL",71%
same,pest or weed control at 400 µg/mL,"Aedes aegypti; β- and ε-lactones, 0.4 mg/mL",82%
same,pest or weed control at 10000 µg/mL,"Aedes aegypti; β- and ε-lactones, 10 mg/mL",100%
